Assay results as given in the supplement of paper PMC10307832.

What was measured:
Test in all cases: relative viability (nuclei count vs DMSO), 5 days (fraction); higher = more cells survive
AZD1208 + Bortezomib = compound: N[C@@H]1CCCN(c2c(/C=C3\SC(=O)NC3=O)cccc2-c2ccccc2)C1 [AZD1208] + CC(C)C[C@H](NC(=O)[C@H](Cc1ccccc1)NC(=O)c1cnccn1)B(O)O [Bortezomib] (partner 0.002 µM)
Summary of the method: (§1)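 Each reported value is a median over duplicate plates. It expresses relative viability: treated-well nuclei count divided by vehicle-well nuclei count. Lung cancer cell lines in 1536-well plates were dosed by pin tool a day after seeding, alone with one drug or with a fixed anchor-drug dose plus five library-drug doses (not always all listed) in √10 steps, and nuclei were counted after 5 days.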

AZD1208 + Palbociclib = compound: N[C@@H]1CCCN(c2c(/C=C3\SC(=O)NC3=O)cccc2-c2ccccc2)C1 [AZD1208] + CC(=O)c1c(C)c2cnc(Nc3ccc(N4CCNCC4)cn3)nc2n(C2CCCC2)c1=O [Palbociclib] (partner 0.5 µM)
Summary of the method: as §1

AZD1208 + AZD7762 = compound: N[C@@H]1CCCN(c2c(/C=C3\SC(=O)NC3=O)cccc2-c2ccccc2)C1 [AZD1208] + NC(=O)Nc1cc(-c2cccc(F)c2)sc1C(=O)N[C@H]1CCCNC1 [AZD7762] (partner 0.2 µM)
Summary of the method: as §1

XMD14-99 + Alpelisib = compound: CN1CCN(CC1)C2=CC(=C(C=C2)NC3=NC(=C(S3)C(=O)C4=C(C=CC=C4Cl)Cl)N)OC [XMD14-99] + Cc1nc(NC(=O)N2CCC[C@H]2C(N)=O)sc1-c1ccnc(C(C)(C)C(F)(F)F)c1 [Alpelisib] (partner 2 µM)
Summary of the method: as §1

Cell Line | relative viability (AZD1208 + Bortezomib; first compound 0.08 µM) | relative viability (AZD1208 + Bortezomib; first compound 0.253 µM) | relative viability (AZD1208 + Bortezomib; first compound 0.8 µM) | relative viability (AZD1208 + Bortezomib; first compound 2.53 µM) | relative viability (AZD1208 + Bortezomib; first compound 8 µM) | relative viability (AZD1208 + Palbociclib; first compound 0.08 µM) | relative viability (AZD1208 + Palbociclib; first compound 0.253 µM) | relative viability (AZD1208 + Palbociclib; first compound 0.8 µM) | relative viability (AZD1208 + Palbociclib; first compound 2.53 µM) | relative viability (AZD1208 + Palbociclib; first compound 8 µM) | relative viability (AZD1208 + AZD7762; first compound 0.08 µM) | relative viability (AZD1208 + AZD7762; first compound 0.253 µM) | relative viability (AZD1208 + AZD7762; first compound 0.8 µM) | relative viability (AZD1208 + AZD7762; first compound 2.53 µM) | relative viability (AZD1208 + AZD7762; first compound 8 µM) | relative viability (XMD14-99 + Alpelisib; first compound 0.08 µM) | relative viability (XMD14-99 + Alpelisib; first compound 0.8 µM) | relative viability (XMD14-99 + Alpelisib; first compound 2.53 µM) | relative viability (XMD14-99 + Alpelisib; first compound 8 µM)
EMC-BAC-2 | 1.15 | 1.16 | 1.05 | 1.02 | 0.919 | 0.518 | 0.51 | 0.504 | 0.494 | 0.432 | 1.21 | 1.13 | 0.866 | 1.03 | 0.875 | 0.728 | 0.767 | 0.74 | 0.619
LU99A | 1.07 | 1.2 | 1.27 | 1.12 | 0.904 | 0.379 | 0.414 | 0.398 | 0.339 | 0.319 | 0.371 | 0.385 | 0.41 | 0.435 | 0.365 | 0.511 | 0.547 | 0.46 | 0.415
ABC-1 | 0.302 | 0.31 | 0.282 | 0.268 | 0.213 | 0.815 | 0.631 | 0.474 | 0.563 | 0.444 | 0.905 | 0.728 | 0.785 | 0.884 | 1.35 | 1.03 | 0.985 | 0.927 | 0.747
NCI-H2405 | 0.986 | 1.01 | 0.936 | 1.01 | 0.989 | 0.497 | 0.536 | 0.505 | 0.51 | 0.418 | 0.676 | 0.636 | 0.699 | 0.705 | 0.629 | 0.792 | 0.895 | 0.809 | 0.416
NCI-H441 | 0.322 | 0.593 | 0.419 | 0.455 | 0.419 | 0.192 | 0.196 | 0.204 | 0.178 | 0.23 | 1.12 | 1.16 | 0.936 | 1.21 | 1.16 | 0.773 | 0.598 | 0.68 | 0.706
PC-14 | 0.963 | 0.954 | 0.848 | 1.01 | 0.907 | 0.511 | 0.59 | 0.502 | 0.532 | 0.475 | 0.404 | 0.429 | 0.366 | 0.324 | 0.414 | 0.813 | 0.921 | 0.901 | 0.73
HARA | 1.09 | 1.12 | 1.08 | 1.18 | 1.19 | 0.268 | 0.258 | 0.246 | 0.291 | 0.261 | 0.36 | 0.468 | 0.373 | 0.557 | 0.44 | 0.872 | 0.784 | 0.734 | 0.481
NCI-H2126 | 1.1 | 1.14 | 1.09 | 1.07 | 1.1 | 0.363 | 0.362 | 0.349 | 0.33 | 0.382 | 1.03 | 1.08 | 1.02 | 0.996 | 0.928 | 0.745 | 0.75 | 0.723 | 0.647
NCI-H1437 | 0.542 | 0.754 | 0.584 | 0.42 | 0.444 | 0.288 | 0.353 | 0.302 | 0.263 | 0.291 | 1.18 | 1.13 | 1.06 | 1.09 | 1.05 | 0.881 | 0.804 | 0.787 | 0.671
NCI-H1792 | 0.999 | 0.987 | 0.903 | 0.958 | 0.86 | 0.697 | 0.663 | 0.616 | 0.587 | 0.554 | 0.815 | 0.739 | – | 0.593 | 0.56 | 0.688 | 0.734 | 0.627 | 0.474
201T | 1.13 | 1.14 | 1.13 | 1.16 | 1.13 | 0.371 | 0.366 | 0.351 | 0.35 | 0.34 | 0.669 | 0.654 | 0.565 | 0.693 | 0.511 | 0.998 | 1 | 0.841 | 0.952
HCC-44 | 0.991 | 0.952 | 0.857 | 0.978 | 0.95 | 1.01 | 0.941 | 0.976 | 0.968 | 1.02 | 1.01 | 1.05 | 1.03 | 1.07 | 1.08 | 0.825 | 0.788 | 0.821 | 0.797
NCI-H647 | 1.05 | 1.12 | 0.902 | 0.774 | 0.774 | 0.322 | 0.486 | 0.324 | 0.397 | 0.304 | 0.638 | 0.547 | 0.466 | 0.378 | 0.497 | 1.05 | 1.07 | 0.937 | 0.933
H3255 | 0.874 | 0.758 | 0.667 | 0.968 | 0.718 | 0.299 | 0.307 | 0.333 | 0.314 | 0.326 | 1.01 | 0.992 | 0.898 | 0.912 | 0.845 | 0.605 | 0.636 | 0.629 | 0.506
NCI-H650 | 1.16 | 0.774 | 0.788 | 0.438 | 0.664 | 0.309 | 0.287 | 0.314 | 0.29 | 0.289 | 1.05 | 1.09 | 0.795 | 0.833 | 0.871 | 1.15 | 0.982 | 0.922 | 0.922
NCI-H2085 | 1.07 | 1.2 | 0.938 | 1.14 | 1.05 | 0.462 | 0.473 | 0.52 | 0.482 | 0.474 | 1 | 1.13 | 0.911 | 0.892 | 1.04 | 0.92 | 0.866 | 0.889 | 0.728
NCI-H2347 | 0.933 | 0.734 | 0.822 | 0.791 | 1.08 | 0.457 | 0.383 | 0.45 | 0.395 | 0.382 | 0.835 | 0.747 | 0.72 | 0.764 | 0.781 | 0.995 | 0.984 | 0.958 | 0.572
EKVX | 1.17 | 1.21 | 1.03 | 1.2 | 1 | 0.383 | 0.41 | 0.336 | 0.332 | 0.419 | 0.76 | 0.801 | 0.674 | 0.719 | 0.606 | 0.767 | 0.985 | 0.876 | 0.696
EPLC-272H | 0.878 | 0.806 | 0.924 | 0.927 | 0.728 | 0.363 | 0.34 | 0.326 | 0.308 | 0.373 | 0.276 | 0.339 | 0.205 | 0.189 | 0.271 | 0.938 | 1.01 | 0.928 | 0.92
LXF-289 | 1.04 | 1.1 | 0.999 | 1.07 | 1.15 | 0.587 | 0.639 | 0.583 | 0.622 | 0.635 | 1.13 | 1.27 | 1.19 | 1.22 | 1.38 | 1 | 0.971 | 1.02 | 0.835
NCI-H3122 | 1.02 | 1.04 | 1.04 | 1.06 | 1.06 | 0.206 | 0.155 | 0.149 | 0.223 | 0.164 | 1.07 | 1.04 | 0.952 | 1.08 | 0.894 | 0.76 | 0.741 | 0.542 | 0.319
NCI-H1755 | 0.97 | 1.06 | 0.96 | 1.02 | 0.904 | 0.439 | 0.459 | 0.437 | 0.458 | 0.385 | 0.509 | 0.577 | 0.455 | 0.446 | 0.448 | 0.945 | 0.908 | 0.886 | 0.648
HCC-78 | 0.474 | 0.586 | 0.453 | 0.475 | 0.529 | 0.464 | 0.427 | 0.466 | 0.446 | 0.452 | 0.737 | 0.758 | 0.643 | 0.739 | 0.793 | 0.371 | 0.308 | 0.331 | 0.291
LOU-NH91 | 0.539 | 0.516 | 0.564 | 0.504 | 0.593 | 0.473 | 0.56 | 0.549 | 0.525 | 0.531 | 0.74 | 0.714 | 0.71 | 0.684 | 0.667 | 0.72 | 0.804 | 0.735 | 0.622
NCI-H322M | 1.21 | 1.31 | 1.21 | 1.15 | 1.25 | 0.488 | 0.467 | – | 0.5 | 0.502 | 0.627 | 0.545 | – | 0.53 | 0.552 | 0.889 | 0.709 | 0.64 | 0.767
HCC-827 | 1.13 | 1.06 | 0.97 | 1.07 | 1.14 | 0.493 | 0.411 | 0.405 | 0.481 | 0.509 | 0.205 | 0.259 | 0.237 | 0.239 | 0.197 | 1.05 | 0.902 | 0.948 | 0.741
NCI-H1975 | 0.415 | 0.404 | 0.304 | 0.353 | 0.357 | 0.56 | 0.686 | 0.535 | 0.591 | 0.403 | 0.746 | 0.784 | 0.691 | 0.746 | 0.642 | 0.715 | 0.605 | 0.553 | 0.378
NCI-H1651 | 0.978 | 0.925 | 0.858 | 0.96 | 0.816 | 0.527 | 0.535 | – | 0.473 | 0.459 | 0.458 | 0.54 | – | 0.439 | 0.472 | 0.841 | 0.836 | 1.09 | 0.917
